Data set [1] deals with THP-1. Briefly: Anti-inflammatory activity in human THP-1 cells assessed as inhibition of IL-1beta protein expression incubated for 24 hrs by Western blot analysis. The format is functional, cell-based. As to conditions: THP-1, 24 h. Background: Immunoblotting shows a protein as a band on a membrane.
For data set [2], the system named is THP-1. Briefly: Antiinflammatory activity against human THP-1 cells assessed as inhibition of LPS-induced TNF-alpha production. The format is functional, cell-based.
The test system of another data set is RAW264.7. Briefly: Anti-inflammatory activity in LPS-induced mouse RAW264.7 cells assessed as inhibition of IL-6 production. The format is functional, cell-based.
Data set [3] is described as follows: Oral bioavailability in Sprague-Dawley rat at 10 mg/kg by LC-MS analysis. The format is ADME, organism-based. Conditions: in vivo.
Data set [4] is described as follows: Clearance in Sprague-Dawley rat at 10 mg/kg, iv by HPLC-MS analysis. The format is ADME, organism-based. As to conditions: in vivo.
The nature of data set [5]: Volume of distribution at steady state in Sprague-Dawley rat at 10 mg/kg, iv measured for 24 hrs by LC-MS/MS analysis. As to conditions: in vivo, read-out: Vdss. The format is ADME, organism-based.
Data set [6] can be described thus: Tmax in Wistar rat at 10 mg/kg, po by LC-MS/MS analysis. The format is ADME, organism-based. Conditions: in vivo.
A short description of data set [7]: Cmax in Wistar rat at 10 mg/kg, po by LC-MS/MS analysis. The format is ADME, organism-based. As to conditions: in vivo.
Data set [8] can be described thus: AUC in Sprague-Dawley rat at 10 mg/kg, po measured for 24 hrs by LC-MS/MS analysis. The format is ADME, organism-based. Conditions: in vivo.
The target of data set [9] is 3',5'-cyclic-AMP phosphodiesterase 4B (Homo sapiens, UniProt Q07343). Briefly: Inhibition of PDE4B1 (unknown origin).
Data set [10] addresses 3',5'-cyclic-AMP phosphodiesterase 4C (Homo sapiens, UniProt Q08493). Briefly: Inhibition of PDE4C (unknown origin).
Data set [11] concerns the target cGMP-inhibited 3',5'-cyclic phosphodiesterase 3A (Homo sapiens) (UniProt Q14432). Briefly: Inhibition of PDE3A (unknown origin) at 10 uM relative to control.
For data set [12], the target named is cGMP-specific 3',5'-cyclic phosphodiesterase (Homo sapiens) (UniProt O76074). Briefly: Inhibition of human PDE5 at 10 uM relative to control.
For data set [13], the species on record is Homo sapiens. Briefly: Inhibition of P70S6K (unknown origin) in presence of 10 uM ATP by Z'-LYTE biochemical assay relative to control.
Data set [14] concerns the target Mitogen-activated protein kinase 14 (Homo sapiens) (UniProt Q16539). Briefly: Inhibition of p38alpha (unknown origin) at 10 uM in presence of ATP relative to control.
Data set [15] addresses Cyclin-dependent kinase 18 (Homo sapiens) (UniProt Q07002). Briefly: Inhibition of CDK18 (unknown origin) at 10 uM relative to control.
Data set [16] has as its target Casein kinase I isoform alpha (Homo sapiens) (UniProt P48729). Briefly: Inhibition of CK1 alpha (unknown origin) at 10 uM relative ton control.
Data set [17] is filed under the species Homo sapiens. Briefly: Inhibition of MKK6 (unknown origin) at 10 uM relative to control.
For data set [18], the target named is CDK7/Cyclin H/MNAT1 (Homo sapiens) (UniProt P51946+P50613+P51948). Briefly: Inhibition of CDK7/cyclinH/MAT1 (unknown origin) at 10 uM in presence of ATP relative to control. The format is protein-complex assay.
Data set [19] can be described thus: Plasma protein binding in human assessed as unbound fraction at 1 uM incubated for 6 hrs by LC-MS/MS analysis. The format is ADME, cell-free.
A short description of data set [20]: Plasma protein binding in human assessed as unbound fraction at 10 uM incubated for 6 hrs by LC-MS/MS analysis. The format is ADME, cell-free.
The nature of data set [21]: Plasma protein binding in human assessed as unbound fraction at 30 uM incubated for 6 hrs by LC-MS/MS analysis. The format is ADME, cell-free.
Data set [22] can be described thus: Plasma protein binding in Sprague-Dawley rat assessed as unbound fraction at 1 uM incubated for 6 hrs by LC-MS/MS analysis. The format is ADME, cell-free.
Data set [23] can be described thus: Plasma protein binding in Sprague-Dawley rat assessed as unbound fraction at 30 uM incubated for 6 hrs by LC-MS/MS analysis. The format is ADME, cell-free.
Data set [24] is described as follows: Plasma protein binding in Sprague-Dawley rat assessed as unbound fraction at 10 uM incubated for 6 hrs by LC-MS/MS analysis. The format is ADME, cell-free.
Data set [25] is described as follows: Plasma protein binding in cynomolgus monkey assessed as unbound fraction at 1 uM incubated for 6 hrs by LC-MS/MS analysis. The format is ADME, cell-free, Macaca fascicularis.
A short description of data set [26]: Plasma protein binding in cynomolgus monkey assessed as unbound fraction at 10 uM incubated for 6 hrs by LC-MS/MS analysis. The format is ADME, cell-free, Macaca fascicularis.
A short description of data set [27]: Plasma protein binding in cynomolgus monkey assessed as unbound fraction at 30 uM incubated for 6 hrs by LC-MS/MS analysis. The format is ADME, cell-free, Macaca fascicularis.
A short description of data set [28]: AUC (0 to t) in Beagle dog at 40 mg/kg, po by LC-MS/MS analysis. The format is ADME, organism-based, Canis lupus familiaris. Conditions: in vivo.
Data set [29] can be described thus: Tmax in Sprague-Dawley rat at 10 mg/kg, po by LC-MS analysis. The format is ADME, organism-based. Conditions: in vivo.
Data set [30] in a line: Cmax in Sprague-Dawley rat at 10 mg/kg, po by LC-MS analysis. The format is ADME, organism-based. As to conditions: in vivo.
The nature of data set [31]: AUC (0 to t) in Sprague-Dawley rat at 10 mg/kg, po by LC-MS analysis. The format is ADME, organism-based. As to conditions: in vivo.
Data set [32] in a line: Half life in Sprague-Dawley rat at 10 mg/kg, po by LC-MS/MS analysis. The format is ADME, organism-based. Conditions: in vivo.
Data set [33] in a line: AUC (0 to infinity) in Sprague-Dawley rat at 10 mg/kg, po by LC-MS/MS analysis. The format is ADME, organism-based. As to conditions: in vivo.
A short description of data set [34]: Tmax in Sprague-Dawley rat at 50 mg/kg, po by LC-MS analysis. Conditions: in vivo. The format is ADME, organism-based.
Data set [35] is described as follows: Cmax in Sprague-Dawley rat at 50 mg/kg, po by LC-MS analysis. The format is ADME, organism-based. As to conditions: in vivo.
Data set [36] is described as follows: AUC (0 to t) in Sprague-Dawley rat at 50 mg/kg, po by LC-MS analysis. The format is ADME, organism-based. As to conditions: in vivo.
Data set [37] can be described thus: Half life in Sprague-Dawley rat at 50 mg/kg, po by LC-MS/MS analysis. The format is ADME, organism-based. As to conditions: in vivo.
Data set [38] can be described thus: AUC (0 to infinity) in Sprague-Dawley rat at 50 mg/kg, po by LC-MS/MS analysis. As to conditions: in vivo. The format is ADME, organism-based.
A short description of data set [39]: AUC (0 to infinity) in Sprague-Dawley rat at 20 mg/kg, po by LC-MS/MS analysis. The format is ADME, organism-based. Conditions: in vivo.
Data set [40] is described as follows: AUC (0 to infinity) in Sprague-Dawley rat at 30 mg/kg, po by LC-MS/MS analysis. The format is ADME, organism-based. As to conditions: in vivo.
Data set [41] can be described thus: Half life in Sprague-Dawley rat at 20 mg/kg, po by LC-MS/MS analysis. As to conditions: in vivo. The format is ADME, organism-based.
Data set [42] can be described thus: Half life in Sprague-Dawley rat at 30 mg/kg, po by LC-MS/MS analysis. Conditions: in vivo. The format is ADME, organism-based.
Data set [43] can be described thus: AUC (0 to t) in Sprague-Dawley rat at 20 mg/kg, po by LC-MS analysis. The format is ADME, organism-based. Conditions: in vivo.
Data set [44] can be described thus: AUC (0 to t) in Sprague-Dawley rat at 30 mg/kg, po by LC-MS analysis. The format is ADME, organism-based. As to conditions: in vivo.
Data set [45] can be described thus: Tmax in Sprague-Dawley rat at 20 mg/kg, po by LC-MS analysis. The format is ADME, organism-based. As to conditions: in vivo.
The nature of data set [46]: Tmax in Sprague-Dawley rat at 30 mg/kg, po by LC-MS analysis. The format is ADME, organism-based. Conditions: in vivo.
The nature of data set [47]: Cmax in Sprague-Dawley rat at 20 mg/kg, po measured for 24 hrs by LC-MS/MS analysis. The format is ADME, organism-based. As to conditions: in vivo.
Data set [48] is described as follows: AUC (0 to infinity) in Sprague-Dawley rat at 20 mg/kg, po measured for 24 hrs by LC-MS/MS analysis. The format is ADME, organism-based. Conditions: in vivo.
The nature of data set [49]: Half life in Beagle dog at 5 mg/kg, po by LC-MS/MS analysis. Conditions: in vivo. The format is ADME, organism-based, Canis lupus familiaris.
The nature of data set [50]: Clearance in rat. The format is ADME. Conditions: in vivo.
The nature of data set [51]: Clearance in dog. The format is ADME, Canis lupus familiaris. As to conditions: in vivo.

As usually defined, the IC50 is the point on the concentration scale where inhibition reaches its midpoint. The term EC50 denotes the concentration needed to bring the measured effect to its halfway point. A word on the bioavailability: it is the share of a dose that reaches the circulation, judged against a reference dose that is usually intravenous. As a reminder, the clearance is the volume of plasma or blood freed of the substance per unit of time. The term Tmax denotes the time at which the peak concentration occurs. For orientation: Cmax means the highest concentration seen after dosing. The inhibition is the change of the read-out against control, counted positive when it falls. In general, fraction unbound refers to the share of the substance not bound to proteins or other matrix. Broadly, the half-life is how long it takes for the measured level to halve.

Sequence of 3',5'-cyclic-AMP phosphodiesterase 4B (Q07343 whole entry): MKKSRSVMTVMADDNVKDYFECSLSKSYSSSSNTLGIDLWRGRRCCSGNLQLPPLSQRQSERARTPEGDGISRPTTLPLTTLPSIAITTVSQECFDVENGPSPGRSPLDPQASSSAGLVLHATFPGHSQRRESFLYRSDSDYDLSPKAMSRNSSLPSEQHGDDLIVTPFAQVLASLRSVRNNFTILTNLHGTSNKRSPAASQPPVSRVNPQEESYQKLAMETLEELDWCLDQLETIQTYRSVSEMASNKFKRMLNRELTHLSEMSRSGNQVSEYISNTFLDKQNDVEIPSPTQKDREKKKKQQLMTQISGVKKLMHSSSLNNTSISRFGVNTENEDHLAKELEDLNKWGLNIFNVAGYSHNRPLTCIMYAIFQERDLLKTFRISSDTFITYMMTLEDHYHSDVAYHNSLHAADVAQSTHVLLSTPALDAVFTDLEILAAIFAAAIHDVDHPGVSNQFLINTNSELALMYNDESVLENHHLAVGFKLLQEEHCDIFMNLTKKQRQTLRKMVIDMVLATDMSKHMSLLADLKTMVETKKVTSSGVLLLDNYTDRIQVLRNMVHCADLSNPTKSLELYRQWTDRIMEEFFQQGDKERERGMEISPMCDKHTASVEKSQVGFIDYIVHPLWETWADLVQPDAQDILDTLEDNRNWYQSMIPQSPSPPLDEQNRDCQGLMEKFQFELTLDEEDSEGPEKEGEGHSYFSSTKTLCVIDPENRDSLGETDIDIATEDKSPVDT
Sequence of 3',5'-cyclic-AMP phosphodiesterase 4C (Q08493 whole entry): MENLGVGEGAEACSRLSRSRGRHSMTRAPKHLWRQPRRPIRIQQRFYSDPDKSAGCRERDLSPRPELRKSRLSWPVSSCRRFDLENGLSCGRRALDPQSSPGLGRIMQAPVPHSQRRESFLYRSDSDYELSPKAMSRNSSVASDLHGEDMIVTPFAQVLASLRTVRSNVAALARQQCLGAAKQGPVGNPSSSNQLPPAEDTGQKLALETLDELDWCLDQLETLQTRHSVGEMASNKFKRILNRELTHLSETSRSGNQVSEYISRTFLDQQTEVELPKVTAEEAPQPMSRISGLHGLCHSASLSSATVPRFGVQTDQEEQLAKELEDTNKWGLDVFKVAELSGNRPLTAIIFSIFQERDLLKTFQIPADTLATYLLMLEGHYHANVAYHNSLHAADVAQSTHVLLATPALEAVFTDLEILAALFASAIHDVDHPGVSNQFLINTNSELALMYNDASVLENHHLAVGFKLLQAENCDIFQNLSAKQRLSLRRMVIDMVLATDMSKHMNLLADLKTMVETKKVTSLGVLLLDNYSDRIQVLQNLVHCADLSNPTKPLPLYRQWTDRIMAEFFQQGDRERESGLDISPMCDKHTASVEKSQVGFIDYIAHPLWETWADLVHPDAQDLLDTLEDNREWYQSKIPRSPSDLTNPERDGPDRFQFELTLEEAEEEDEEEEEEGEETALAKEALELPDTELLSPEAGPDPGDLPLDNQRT
Sequence of Cyclin-dependent kinase 18 (Homo sapiens) (Q07002 whole entry, canonical isoform): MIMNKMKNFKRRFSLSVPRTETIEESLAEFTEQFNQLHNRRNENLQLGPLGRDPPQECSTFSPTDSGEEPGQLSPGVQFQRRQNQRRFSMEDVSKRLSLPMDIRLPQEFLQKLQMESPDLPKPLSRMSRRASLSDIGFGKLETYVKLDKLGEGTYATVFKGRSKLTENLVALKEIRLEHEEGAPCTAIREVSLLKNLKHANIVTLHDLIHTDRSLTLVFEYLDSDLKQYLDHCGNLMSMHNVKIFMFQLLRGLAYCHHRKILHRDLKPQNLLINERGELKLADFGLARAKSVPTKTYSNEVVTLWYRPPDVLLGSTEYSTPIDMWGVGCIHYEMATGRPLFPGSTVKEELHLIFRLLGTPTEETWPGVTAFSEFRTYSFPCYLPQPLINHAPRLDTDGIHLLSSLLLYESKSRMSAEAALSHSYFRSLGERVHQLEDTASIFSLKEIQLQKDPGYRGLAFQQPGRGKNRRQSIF
Sequence of Mitogen-activated protein kinase 14 (Homo sapiens) (Q16539 whole entry): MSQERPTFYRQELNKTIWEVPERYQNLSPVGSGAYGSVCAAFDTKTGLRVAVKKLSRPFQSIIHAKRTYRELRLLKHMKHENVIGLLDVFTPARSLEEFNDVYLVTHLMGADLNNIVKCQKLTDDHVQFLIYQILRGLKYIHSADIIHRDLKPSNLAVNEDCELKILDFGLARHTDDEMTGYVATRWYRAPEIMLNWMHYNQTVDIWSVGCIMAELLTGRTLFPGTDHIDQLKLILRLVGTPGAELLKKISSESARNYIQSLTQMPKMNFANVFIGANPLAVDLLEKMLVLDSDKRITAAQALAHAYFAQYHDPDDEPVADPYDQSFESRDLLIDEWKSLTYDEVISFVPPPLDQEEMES
Sequence of Casein kinase I isoform alpha (Homo sapiens) (P48729 2-337 limits assumed): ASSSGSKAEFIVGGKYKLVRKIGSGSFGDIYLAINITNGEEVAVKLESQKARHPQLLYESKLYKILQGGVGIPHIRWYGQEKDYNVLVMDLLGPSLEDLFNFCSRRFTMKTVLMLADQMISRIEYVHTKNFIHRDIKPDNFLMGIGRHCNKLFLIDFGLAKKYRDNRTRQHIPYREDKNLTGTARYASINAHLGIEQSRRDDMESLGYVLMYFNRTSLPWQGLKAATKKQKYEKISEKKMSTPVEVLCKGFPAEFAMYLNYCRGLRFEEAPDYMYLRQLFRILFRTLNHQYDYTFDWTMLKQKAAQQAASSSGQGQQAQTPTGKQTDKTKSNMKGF
Sequence of cGMP-inhibited 3',5'-cyclic phosphodiesterase 3A (Homo sapiens) (Q14432 whole entry): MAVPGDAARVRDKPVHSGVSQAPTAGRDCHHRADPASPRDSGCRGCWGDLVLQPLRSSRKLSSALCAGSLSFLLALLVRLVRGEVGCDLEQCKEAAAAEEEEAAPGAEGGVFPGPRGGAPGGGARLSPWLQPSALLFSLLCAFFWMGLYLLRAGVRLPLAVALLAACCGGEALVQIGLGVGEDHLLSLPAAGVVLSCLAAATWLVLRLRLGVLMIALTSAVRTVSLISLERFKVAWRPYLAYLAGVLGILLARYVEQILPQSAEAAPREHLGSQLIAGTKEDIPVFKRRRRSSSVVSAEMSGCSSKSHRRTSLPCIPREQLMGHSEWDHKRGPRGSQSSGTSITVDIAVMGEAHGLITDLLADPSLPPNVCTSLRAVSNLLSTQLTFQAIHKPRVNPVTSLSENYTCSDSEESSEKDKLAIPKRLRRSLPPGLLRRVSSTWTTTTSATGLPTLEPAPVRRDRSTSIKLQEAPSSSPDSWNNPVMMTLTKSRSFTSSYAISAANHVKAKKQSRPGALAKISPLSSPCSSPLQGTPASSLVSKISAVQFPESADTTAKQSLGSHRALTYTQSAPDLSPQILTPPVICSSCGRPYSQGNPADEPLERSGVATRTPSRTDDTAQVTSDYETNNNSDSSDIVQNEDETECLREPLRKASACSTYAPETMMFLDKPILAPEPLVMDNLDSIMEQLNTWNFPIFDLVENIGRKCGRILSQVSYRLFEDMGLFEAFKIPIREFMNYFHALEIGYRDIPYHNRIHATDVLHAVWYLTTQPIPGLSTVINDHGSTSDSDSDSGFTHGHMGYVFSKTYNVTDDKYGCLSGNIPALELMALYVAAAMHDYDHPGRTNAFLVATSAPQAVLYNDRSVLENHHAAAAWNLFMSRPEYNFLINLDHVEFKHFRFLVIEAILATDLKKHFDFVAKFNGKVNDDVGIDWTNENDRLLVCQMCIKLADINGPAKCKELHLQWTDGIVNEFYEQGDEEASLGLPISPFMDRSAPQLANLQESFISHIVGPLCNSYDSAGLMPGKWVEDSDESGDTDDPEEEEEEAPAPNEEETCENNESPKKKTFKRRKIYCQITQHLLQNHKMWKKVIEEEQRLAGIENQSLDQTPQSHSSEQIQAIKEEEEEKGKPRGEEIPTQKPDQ

With `Cn1c(=O)c(Oc2ccc(F)cc2F)cc2cnc(NC3CCOCC3)nc21` [R-1487], the IC50 was determined as 170 nM in the data set with THP-1 [1] and 800 nM in the data set with THP-1 [2]. Further, the concentration giving a half-maximal response (EC50) with RAW264.7 came to 10 nM. In data set [3], this compound registered a bioavailability of 29.3%. Moreover, the clearance in data set [4] is 20.7 mL/min/kg. Moreover, the Vd in data set [5] was determined as 1.94 L/kg. Moreover, the Tmax in data set [6] worked out at 2 h. In data set [7], the peak level (Cmax) was 650 ng/mL. In data set [8], this compound gave an AUC of 2.35 µg/h/mL.
For the compound `Cn1c([S+](C)[O-])nc(-c2ccc(F)cc2)c1-c1ccnc(N)c1` (centres undefined), the IC50 in data set [9] was 3500 nM; in data set [10] it was greater than 10000 nM. Besides, the inhibition in [11] and in [12] was 30% throughout.
In the case of `CC(=O)Nc1cc(-c2c(-c3ccc(F)cc3)nc([S+](C)[O-])n2C)ccn1` (centres undefined), the inhibition in the data set filed under Homo sapiens [13] was 32%; in [14] it was 35%; in data set [15], 94%; in data set [16] it was 97%; in the data set filed under Homo sapiens [17], 62%; in data set [18], 54%. The values for the IC50 in data set [9] and in [10] were 1900 nM and 6400 nM, respectively. For the same compound, the free fraction (fraction unbound) at 6 h, 1 µM turned out to be 0.9 in data set [19], 0.863 in data set [22] and 0.667 in data set [25]. Besides, the unbound share (fraction unbound) at 6 h, 10 µM in data set [20] came to 0.806; in data set [24], 0.631; in data set [26], 0.611. Also, the unbound share (fraction unbound) at 6 h, 30 µM was 0.781 in [21], 0.754 in [23] and 0.583 in data set [27]. The AUCt in [28] worked out at 93.4 µM·h; in [31], 0.95 µM·h; in [36], 3.4 µM·h; in data set [43], 0.31 µM·h; in [44], 0.42 µM·h. The Tmax in [29] stood at 2.2 h; in data set [34] it was 1.5 h; in data set [45], 2.9 h; in data set [46] it was 2.3 h. Also, the Cmax is 200 nM in data set [30], 590 nM in [35] and 314 nM in [47]. Also, the half-life in data set [32] was 2.7 h; in data set [37], 3.2 h; in data set [41] it was 3.3 h; in data set [42], 3.4 h. Moreover, the AUC is 1.04 µM·h in [33]; 3.58 µM·h in data set [38]; 2.24 µM·h in data set [39]; 3.05 µM·h in data set [40]; 2.24 µM·h in data set [48].
As for `O=C(CO)N1CCC(c2[nH]nc(-c3ccc(Cl)cc3)c2-c2ccncn2)CC1` [SD-0006], the half-life in data set [49] was 4.48 h. Further, the clearance was found to be 4.86 mL/min/kg in data set [50] and 2.92 mL/min/kg in [51].

The values above are taken from ChEMBL document CHEMBL6083249, “The journey of p38 MAP kinase inhibitors: From bench to bedside in treating inflammatory diseases” (Eur J Med Chem, 2024).
